This passage reports GI50 and IC50 results from patent US20250188040A1, “PHARMACEUTICAL COMPOSITIONS COMPRISING WRN HELICASE INHIBITORS” (Vividion Therapeutics, Inc., priority 2022, published 2025).

Like-named read-outs stand apart in the source and are kept apart here.

A word on the GI50: it is the concentration that inhibits growth by half.

Assay [1] relates to HCT 116 cells. The assay can be described thus: Cell growth assay (CellTiter-Glo 2.0), HCT 116 MSI-H cell line. Particulars: Homo sapiens, HCT-116, 120 h, read-out: Cell Growth Inhibition GI50 HCT-116. Background: ATP-based viability assays read luminescence as a measure of living cells.
Assay [2] has as its system SW480 cells. Nature of the assay: Cell growth assay (CellTiter-Glo 2.0), SW480 MSS cell line. As to conditions: Homo sapiens, SW480, 120 h, read-out: Cell Growth Inhibition GI50 SW480.
In assay [3] the target is hWRN(519-1227)_C-H3CV-GFP-10His (Homo sapiens, UniProt Q14191). Nature of the assay: Helicase Assay for WRN Inhibition (ATP-dependent, fluorescence based).
Chain of hWRN(519-1227)_C-H3CV-GFP-10His (Q14191 519-1227): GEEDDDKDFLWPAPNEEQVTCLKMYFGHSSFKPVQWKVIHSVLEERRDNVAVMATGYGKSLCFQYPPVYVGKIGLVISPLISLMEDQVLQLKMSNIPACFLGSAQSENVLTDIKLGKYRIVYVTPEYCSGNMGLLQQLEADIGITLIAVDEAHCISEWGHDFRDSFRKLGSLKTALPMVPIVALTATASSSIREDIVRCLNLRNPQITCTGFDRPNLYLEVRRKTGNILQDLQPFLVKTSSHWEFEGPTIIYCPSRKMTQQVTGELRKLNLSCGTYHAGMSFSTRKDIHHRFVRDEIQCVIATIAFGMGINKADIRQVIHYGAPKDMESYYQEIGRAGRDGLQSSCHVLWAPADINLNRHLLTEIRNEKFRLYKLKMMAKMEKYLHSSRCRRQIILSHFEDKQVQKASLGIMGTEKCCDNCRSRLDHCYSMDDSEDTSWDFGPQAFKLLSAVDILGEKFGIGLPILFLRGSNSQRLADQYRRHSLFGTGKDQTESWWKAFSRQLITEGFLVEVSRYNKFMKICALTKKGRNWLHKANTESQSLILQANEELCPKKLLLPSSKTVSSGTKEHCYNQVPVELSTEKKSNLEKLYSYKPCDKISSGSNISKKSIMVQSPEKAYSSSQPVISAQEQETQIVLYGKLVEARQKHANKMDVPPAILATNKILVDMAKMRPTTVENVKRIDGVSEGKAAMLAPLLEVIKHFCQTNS
Experimental: Effects of compounds on WRN helicase activity were assessed with the Helicase Assay for WRN Inhibition. This is an ATP-dependent (inclusion of ATP is important and is required for this assay) fluorescence based assay using recombinant WRN and a fluorogenic DNA substrate.
WRN activity was normalized to signal from wells without WRN protein (background, 0% activity) and wells with protein treated only with DMSO (positive control, 10000 activity). For each compound the potency of inhibition (IC50) was determiined using Graphpad Prism.
The target in assay [4] is T1, WRN C727 (Homo sapiens, UniProt Q14191).
T1 construct: endogenous in cells; host or cells: OCI-AML2
T1 sequence (Q14191 whole entry): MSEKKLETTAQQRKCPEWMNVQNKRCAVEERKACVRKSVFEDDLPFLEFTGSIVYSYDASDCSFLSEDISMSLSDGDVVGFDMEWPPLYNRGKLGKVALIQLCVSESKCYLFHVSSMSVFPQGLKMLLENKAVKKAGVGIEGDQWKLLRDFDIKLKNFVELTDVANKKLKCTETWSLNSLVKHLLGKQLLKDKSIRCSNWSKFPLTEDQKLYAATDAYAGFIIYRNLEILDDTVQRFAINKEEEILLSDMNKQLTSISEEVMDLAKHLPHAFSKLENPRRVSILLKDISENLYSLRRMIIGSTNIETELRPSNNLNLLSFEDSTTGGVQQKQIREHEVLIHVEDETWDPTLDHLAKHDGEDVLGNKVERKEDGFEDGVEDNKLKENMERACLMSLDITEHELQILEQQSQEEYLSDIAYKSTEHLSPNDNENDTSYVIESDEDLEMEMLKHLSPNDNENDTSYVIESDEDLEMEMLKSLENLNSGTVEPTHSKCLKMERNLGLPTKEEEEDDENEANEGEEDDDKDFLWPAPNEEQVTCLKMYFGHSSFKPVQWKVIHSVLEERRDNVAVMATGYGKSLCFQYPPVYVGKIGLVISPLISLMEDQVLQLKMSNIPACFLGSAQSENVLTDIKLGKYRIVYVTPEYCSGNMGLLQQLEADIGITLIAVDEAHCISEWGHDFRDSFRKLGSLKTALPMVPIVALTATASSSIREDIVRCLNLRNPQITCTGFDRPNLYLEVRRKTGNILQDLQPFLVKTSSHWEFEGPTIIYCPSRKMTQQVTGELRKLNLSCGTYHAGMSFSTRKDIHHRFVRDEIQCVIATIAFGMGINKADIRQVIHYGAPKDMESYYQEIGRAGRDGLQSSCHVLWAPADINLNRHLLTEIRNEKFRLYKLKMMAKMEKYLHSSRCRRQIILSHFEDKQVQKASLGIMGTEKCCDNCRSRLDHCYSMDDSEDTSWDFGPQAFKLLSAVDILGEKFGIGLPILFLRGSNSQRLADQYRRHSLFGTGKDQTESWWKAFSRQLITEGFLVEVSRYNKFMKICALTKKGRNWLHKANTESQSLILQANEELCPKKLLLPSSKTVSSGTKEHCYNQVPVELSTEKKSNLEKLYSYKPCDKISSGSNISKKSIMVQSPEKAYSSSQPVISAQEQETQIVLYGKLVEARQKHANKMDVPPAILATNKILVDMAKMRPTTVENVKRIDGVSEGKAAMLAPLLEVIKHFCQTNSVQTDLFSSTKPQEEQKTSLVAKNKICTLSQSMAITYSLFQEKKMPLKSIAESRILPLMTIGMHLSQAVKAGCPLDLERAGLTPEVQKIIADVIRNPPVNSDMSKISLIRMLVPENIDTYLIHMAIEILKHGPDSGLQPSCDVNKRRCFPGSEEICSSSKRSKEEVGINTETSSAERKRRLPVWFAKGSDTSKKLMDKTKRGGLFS
Nature of the assay: Target engagement, in vitro (lysate), OCI-AML2. The assay is classed as binding. As to conditions: read-out: OCI-AML2 WRN C727 TE50 in vitro (lysate). An outline of the steps:
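Percent engagement of WRN C727 is expressed against DMSO-treated samples, measured by PRM mass spectrometry of streptavidin-enriched, probe-tagged tryptic peptides. Compound dose responses preceded probe labelling of solvent-exposed cysteines, in either living OCI-AML2 cells or their lysates.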

Where [5] appears, read: WRN Helicase IC50, 30 min preincubation with ATP, 30 min reaction.

Take `CC(C)(C)OC[C@@H](/C=C/S(C)(=O)=O)NC(=O)c1cnc(C(C)(F)F)nc1Oc1ccccc1` [Example 96, (R,E)-N-(1-(tert-butoxy)-4-(methylsulfonyl)but-3-en-2-yl)-2-(1,1-difluoroethyl)-4-phenoxypyrimidine-5-carboxamide]: the GI50 in assay [1] is 0.0369 µM; in assay [2], 27.5 µM. Besides, the IC50 is 0.2 µM in assay [3] (setting [5]) and 0.4 µM in assay [4].

As for `C[C@@H]1CC[C@H](C)N1c1ncc(C(=O)N[C@@H](C)/C=C/S(C)(=O)=O)c(Oc2ccccc2)n1` [Example 171, 2-((2R,5S)-2,5-dimethylpyrrolidin-1-yl)-N—((S,E)-4-(methylsulfonyl)but-3-en-2-yl)-4-phenoxypyrimidine-5-carboxamide], the results for the GI50 in assay [1] and in assay [2] were 0.434 µM and 8.1 µM, respectively. Besides, the figures for the IC50 in assay [3] (setting [5]) and in assay [4] were 1.19 µM and 4.45 µM, respectively.

In the case of `CN(C)C(=O)C[C@@H](/C=C/S(C)(=O)=O)NC(=O)c1cnc(C(C)(F)F)nc1Oc1ccccc1` [Example 92, (S,E)-2-(1,1-difluoroethyl)-N-(5-(dimethylamino)-1-(methylsulfonyl)-5-oxopent-1-en-3-yl)-4-phenoxypyrimidine-5-carboxamide], the concentration for 50% growth inhibition (GI50) worked out at 0.245 µM in assay [1] and 43 µM in assay [2]. In addition, the IC50 in assay [3] (setting [5]) is 1.1 µM; in assay [4] it was 10 µM.

As for `C[C@@H](/C=C/S(C)(=O)=O)NC(=O)c1cnc(N2CCCC2)nc1Oc1ccccc1` [Example 168, (S,E)-N-(4-(methylsulfonyl)but-3-en-2-yl)-4-phenoxy-2-(pyrrolidin-1-yl)pyrimidine-5-carboxamide], the GI50 came to 1.6 µM in assay [1] and 17 µM in assay [2]. Besides, the IC50 in assay [3] (setting [5]) amounted to 4.4 µM; in assay [4] it was 9.23 µM.

Take `Cn1ncc2cc(C(=O)N[C@H](/C=C/S(C)(=O)=O)C3CC3)c(Oc3ccccc3)nc21` [Example 252, (S,E)-N-(1-cyclopropyl-3-(methylsulfonyl)allyl)-1-methyl-6-phenoxy-1H-pyrazolo[3,4-b]pyridine-5-carboxamide]: the 50% growth inhibitory concentration (GI50) in assay [1] was 2.1 µM; in assay [2], above 30 µM. The IC50 came to 12 µM in assay [3] (setting [5]) and 0.35 µM in assay [4].

As to `CS(=O)(=O)/C=C\C1CN(C(=O)c2cnc(C3CC3)nc2Oc2ccccc2)C1` (single isomer, unassigned) [Example 23, (Z)-(2-cyclopropyl-4-phenoxypyrimidin-5-yl)(3-(2-(methylsulfonyl)vinyl)azetidin-1-yl)methanone], the GI50 in assay [1] turned out to be 1.1 µM; in assay [2] it was 2.8 µM. Besides, the IC50 in assay [3] worked out at 3.4 µM; in assay [4], 8.83 µM.

Regarding `CS(=O)(=O)/C=C\[C@H](Cc1ccccc1)NC(=O)c1cnc(C2CC2)nc1Oc1ccccc1` (single isomer, unassigned) [Example 21], the GI50 was 3.1 µM in assay [1] and 14 µM in assay [2]. Also, the IC50 in assay [3] (setting [5]) was 6.1 µM; in assay [4] it was above 100 µM.

On to `CS(=O)(=O)/C=C/[C@@H](NC(=O)c1cnc(C(F)C2CC2)nc1Oc1ccccc1)C1CC1` (stereo partly drawn) [Example 37, N—((S,E)-1-cyclopropyl-3-(methylsulfonyl)allyl)-2-(cyclopropylfluoromethyl)-4-phenoxypyrimidine-5-carboxamide], for which the 50% growth inhibitory concentration (GI50) was 0.0359 µM in assay [1] and 28.6 µM in assay [2]. Also, the figures for the IC50 in assay [3] (setting [5]) and in assay [4] were 0.24 µM and 0.45 µM, respectively.

`CS(=O)(=O)/C=C/C1CN(C(=O)c2cnc(C3CC3)nc2Oc2ccccc2)C1` (single isomer, unassigned) [Example 24, (E)-(2-cyclopropyl-4-phenoxypyrimidin-5-yl)(3-(2-(methylsulfonyl)vinyl)azetidin-1-yl)methanone]: the values for the 50% growth inhibitory concentration (GI50) in assay [1] and in assay [2] were 7.7 µM and above 10 µM, respectively. The IC50 is 20 µM in assay [3] and above 100 µM in assay [4].

For `CS(=O)(=O)/C=C/[C@H](Cc1ccccc1)NC(=O)c1cnc(C2CC2)nc1Oc1ccccc1` (single isomer, unassigned) [Example 20], the GI50 worked out at 0.745 µM in assay [1] and 15.4 µM in assay [2]. In addition, the IC50 in assay [3] (setting [5]) was 1.7 µM; in assay [4], 9.36 µM.

Consider `Cn1ccc2cc(C(=O)N[C@H](/C=C/S(C)(=O)=O)C3CC3)c(Oc3ccccc3)nc21` [Example 250, (S,E)-N-(1-cyclopropyl-3-(methylsulfonyl)allyl)-1-methyl-6-phenoxy-1H-pyrrolo[2,3-b]pyridine-5-carboxamide], for which the figures for the GI50 in assay [1] and in assay [2] were 1.14 µM and 44.9 µM, respectively. Besides, the values for the IC50 in assay [3] (setting [5]) and in assay [4] were 4.5 µM and 0.62 µM, respectively.

`CC(C)(C)c1ncc(C(=O)N[C@H](/C=C/S(C)(=O)=O)C2CCOCC2)c(Oc2ccccc2)n1` [Example 70, (S,E)-2-(tert-butyl)-N-(3-(methylsulfonyl)-1-(tetrahydro-2H-pyran-4-yl)allyl)-4-phenoxypyrimidine-5-carboxamide]: the concentration for 50% growth inhibition (GI50) was 0.13 µM in assay [1] and above 58.7 µM in assay [2]. Further, the IC50 in assay [3] (setting [5]) was 0.24 µM; in assay [4], 0.79 µM.

`CS(=O)(=O)C=C1CN(C(=O)c2cnc([C@H]3C[C@H](C)C3)nc2Oc2ccccc2)C1` (single isomer, unassigned) [Example 51, (2-((1r,3r)-3-methylcyclobutyl)-4-phenoxypyrimidin-5-yl)(3-((methylsulfonyl)methylene)azetidin-1-yl)methanone]: the 50% growth inhibitory concentration (GI50) was found to be 0.184 µM in assay [1] and 8.52 µM in assay [2]. Further, the IC50 in assay [3] worked out at 0.45 µM; in assay [4], 3.3 µM.

For `COC[C@H](/C=C/S(C)(=O)=O)NC(=O)c1cnc(C(C)(C)C)nc1Oc1ccccc1` [Example 64, (S,E)-2-(tert-butyl)-N-(1-methoxy-4-(methylsulfonyl)but-3-en-2-yl)-4-phenoxypyrimidine-5-carboxamide], the GI50 came to 2.3 µM in assay [1] and 36 µM in assay [2]. The IC50 is 8.6 µM in assay [3] (setting [5]) and above 100 µM in assay [4].

With `C[C@@H](/C=C/S(=O)(=O)C1CC1)NC(=O)c1cnc(C2CC2)nc1Oc1ccccc1` [Example 25, (S,E)-2-cyclopropyl-N-(4-(cyclopropylsulfonyl)but-3-en-2-yl)-4-phenoxypyrimidine-5-carboxamide], the GI50 in assay [1] is 5 µM; in assay [2], above 10 µM. Further, the IC50 in assay [3] (setting [5]) is 12 µM; in assay [4], above 100 µM.

In the case of `CS(=O)(=O)/C=C/[C@@H](NC(=O)c1cnc(C2CC2)nc1Oc1ccccc1)C1CC(F)(F)C1` [Example 30, (S,E)-2-cyclopropyl-N-(1-(3,3-difluorocyclobutyl)-3-(methylsulfonyl)allyl)-4-phenoxypyrimidine-5-carboxamide], the GI50 amounted to 0.12 µM in assay [1] and 16 µM in assay [2]. Besides, the IC50 in assay [3] (setting [5]) is 0.45 µM; in assay [4], 1.43 µM.

`COC(=O)C=C1CN(C(=O)c2cnc(C(C)(C)C)nc2Oc2ccccc2)C1` [Example 191, methyl 2-(1-(2-(tert-butyl)-4-phenoxypyrimidine-5-carbonyl)azetidin-3-ylidene)acetate]: the GI50 was 0.26 µM in assay [1] and 7.4 µM in assay [2]. The IC50 in assay [3] was 0.91 µM; in assay [4], 2.19 µM.

As to `C[C@@H](/C=C/S(C)(=O)=O)NC(=O)c1cnc(CC2(C)CC2)nc1Oc1ccccc1` [Example 40, (S,E)-2-((1-methylcyclopropyl)methyl)-N-(4-(methylsulfonyl)but-3-en-2-yl)-4-phenoxypyrimidine-5-carboxamide], the GI50 is 1.2 µM in assay [1] and 49 µM in assay [2]. For the same compound, the figures for the IC50 in assay [3] (setting [5]) and in assay [4] were 2.7 µM and 3.48 µM, respectively.

Turning to `COC(C)(C)c1ncc(C(=O)N[C@@H](C)/C=C/S(C)(=O)=O)c(Oc2ccccc2)n1` [Example 221, (S,E)-2-(2-methoxypropan-2-yl)-N-(4-(methylsulfonyl)but-3-en-2-yl)-4-phenoxypyrimidine-5-carboxamide], the GI50 turned out to be 2 µM in assay [1] and 52 µM in assay [2]. The IC50 came out at 8.3 µM in assay [3] (setting [5]) and 20 µM in assay [4].

For `C[C@@H](/C=C/S(C)(=O)=O)NC(=O)c1cnc(CC2CCCC2)nc1Oc1ccccc1` [Example 54, (S,E)-2-(cyclopentylmethyl)-N-(4-(methylsulfonyl)but-3-en-2-yl)-4-phenoxypyrimidine-5-carboxamide], the GI50 was 0.77 µM in assay [1] and above 10 µM in assay [2]. Moreover, the IC50 was 2.6 µM in assay [3] (setting [5]) and 50 µM in assay [4].

For `C[C@@H](/C=C/S(C)(=O)=O)NC(=O)c1cnc(C(F)(F)C2CC2)nc1Oc1ccccc1` [Example 223, (S,E)-2-(cyclopropyldifluoromethyl)-N-(4-(methylsulfonyl)but-3-en-2-yl)-4-phenoxypyrimidine-5-carboxamide], the results for the 50% growth inhibitory concentration (GI50) in assay [1] and in assay [2] were 0.0539 µM and 19 µM, respectively. Further, the values for the IC50 in assay [3] (setting [5]) and in assay [4] were 0.18 µM and 0.23 µM, respectively.

Regarding `CS(=O)(=O)/C=C/CNC(=O)c1cnc(C2CCCC2)nc1Oc1cccc(Cl)c1` [Example 117, (E)-4-(3-chlorophenoxy)-2-cyclopentyl-N-(3-(methylsulfonyl)allyl)pyrimidine-5-carboxamide], the GI50 in assay [1] amounted to 6 µM; in assay [2], 7.4 µM. The IC50 is 6.7 µM in assay [3] (setting [5]) and above 100 µM in assay [4].
